In US9879050B2, “Substituted urea depsipeptide analogs as activators of the CLPP endopeptidase” (priority 2013, dated 2018):
≈ marks a conversion by molar mass, not a printed value. Where two headings read alike, the source gives them in different places. *1 amine or outer side, *2 acyl side, *3 side chain or, on linkers, in order; H or OH if unused. Where a SMILES comes first, the peptide text is derived from it. Bridges are numbered along the chain shown (N, C = ends). [ ]: non-standard residue; d: D form. The star is where a group is joined. ξ: configuration not given here. Phe(3,5-F2) = N[C@@H](Cc1cc(F)cc(F)c1)C(=O)O; NH(4-OCF3-phenyl) = FC(F)(F)Oc1ccc(N*)cc1; ξPro(4S-Me) = C[C@@H]1CNC(C(=O)O)C1; aThr = C[C@H](O)[C@H](N)C(=O)O; X1 = O=C(C1COCCN1[*:1])[*:2]; CO = O=C([*:1])[*:2]; ξP = O=C(O)C1CCCN1

Assays:
Sa-ClpP [1] = target: T1, Sa-ClpP (Staphylococcus aureus, UniProt Q2G036); assay: ClpP activation, EnzCheck Protease Assay with Bodipy-FL casein (second described method); assay type: biochemical, S. aureus
T1 construct: made in house; host or cells: E. coli BL21 (DE3)
Method: Alternatively, the assay was carried out using EnzCheck Protease Assay (Molecular Probes, Catalog #E6638). The assay was performed in black 384 well, flat bottom, low volume plates (Greiner Bio-One, Monroe, N.C., catalog #784076). 10 μL of Tris.HCl buffer, pH 8.0 with 0.01% Triton X-100 was pipetted into each well using a Well-Mate (Thermo Scientific, Waltham, Mass.). 0.4 μL test compounds or controls (2% DMSO v/v) were added to each well using a Biomek FX liquid handling robot (Beckman Coulter, Indianapolis Ind.). After addition of test compounds and controls, 10 μL of master mix containing 2 μM Sa-ClpP and 2 μM substrate (Bodipy-FL labeled casein) in Tris*HCl buffer, pH 8.0 with 0.01% (v/v) Triton X-100, was pipetted into each well. All assays were performed in triplicate, under linear velocity conditions. Increase in fluorescent signal following activation of Sa-ClpP by test compounds and controls was measured over time period of 30 mins using filters with excitation at 485±15 nm and emission at 520±25 nm on a PHERAstar FS Multilabel reader (BMG, Cary, N.C.). […] Data analysis was done by measuring rate of casein degradation over time (slopes). Computed degradation rates (slopes) were normalized to positive (ADEP4) or negative (DMSO) controls. Using nonlinear regression curve fitting EC50 values and % activation were determined using the equation “log [agonist]vs. Response-variable slope (four parameters)-symmetrical” in the program Prism 6 (GraphPad Software, La Jolla, Calif. USA, www.graphpad.com).

[2] = Cytotoxicity assay, CellTiter-Glo cell viability; assay type: cell-based; details: African green monkey
Method: Cytotoxicity was determined by determining the effect of compounds on cell viability. Vero (kidney epithelial cells; ATCC CCL-81) monolayers were trypsinized and 5000 cells/well were seeded (10-15% confluency) into white-wall, flat bottom 96 well microwell plates (Corning) using enriched Dulbecco's Modified Eagle's Medium (Hyclone: DMEM/High Glucose) containing 10% Fetal Bovine Serum (ATCC-30-2020). Plates were incubated overnight at 37° C. in the presence of 5% CO2. Drug-free media was then replaced with media containing serial dilutions of test compound or DMSO carrier. After an additional 72 hours of incubation, viability was indirectly measured using the CellTiter-Glo® Luminescent Cell Viability (Promega) assay. Assay plates were read at peak emission wavelength of 560 nm using a EnVision® Multilabel Plate Reader (Perkin Elmer) or PHERAstar FS Multilabel reader (BMG, Cary, N.C.). […] USA, www.graphpad.com]. For each experiment, compounds were tested in duplicate. IC50 values presented are the range of two biologically independent experiments.

S. pneumoniae R6 = assay: Minimal inhibitory concentration, microbroth dilution; assay type: cell-based
Method: Minimal inhibitory concentrations (“MICs”) were determined using the microbroth dilution method according to Clinical Laboratory Standards Institute (CLSI; National, C.F. C. L. S., Methods for Dilution Antimicrobial Susceptibility Tests for Bacteria Grow aerobically-Seventh Edition: Approved Standard M7-A7, CLSI, Wayne, Pa., USA, 2008) and were read by visual inspection. Two fold serial dilutions of test compound in 100 μL of the appropriate broth media were first prepared in 96-well round bottom microtiter plates (Nalgene Nunc International, Rochester, N.Y., USA). […] The plates were then incubated aerobically at 37° C. All strains were incubated overnight. After incubations, in all cases the MIC was recorded as the lowest concentration of drug that prevented bacterial growth. The bacterial strains for which MIC was determined as described in Table 4.

S. aureus USA 300 ΔClpP = assay: as above; assay type: cell-based, Staphylococcus aureus; details: ClpP inactivated strain
Method: Minimal inhibitory concentrations (“MICs”) were determined using the microbroth dilution method according to Clinical Laboratory Standards Institute (CLSI; National, C.F. C. L. S., Methods for Dilution Antimicrobial Susceptibility Tests for Bacteria Grow aerobically-Seventh Edition: Approved Standard M7-A7, CLSI, Wayne, Pa., USA, 2008) and were read by visual inspection. Two fold serial dilutions of test compound in 100 μL of the appropriate broth media were first prepared in 96-well round bottom microtiter plates (Nalgene Nunc International, Rochester, N.Y., USA). An equivalent volume (100 μL) of bacterial broth inocula containing approximately 10^5 bacterial cfu/mL was added to each well to give final concentrations of test compound starting at 200 μM. The plates were then incubated aerobically at 37° C. All strains were incubated overnight. After incubations, in all cases the MIC was recorded as the lowest concentration of drug that prevented bacterial growth. The bacterial strains for which MIC was determined as described in Table 4.

Sa-ClpP [3] = target: T1, Sa-ClpP; assay: ADEP displacement fluorescence polarization assay; assay type: binding, S. aureus
Method: A fluorescence polarization (FP) assay was used to determine the activity of the disclosed compounds in displacing an ADEP analogue from ClpP. Briefly, the assay was performed in black 384 well, flat bottom, low volume plates (Greiner Bio-One, Monroe, N.C., catalog #784076). 20 μL of a pre-equilibrated (1 hr, room temperature) master mix (1 μM Sa-ClpP, 2% DMSO (v/v) and 50 nM FP probe in Tris*HCl, pH 8.0)) was pipetted into each well using a Well-Mate (Thermo Scientific, Waltham, Mass.). Sa-ClpP was prepared as described above for the ClpP activation assay. The FP probe was ADEP 2591 (structure shown above). The ADEP 2591 comprises a TAMRA fluorophore linked to a core based on modified ADEP 2378 via a short alkyl linker. Using pin transfer, approximately 0.4 μL (2% v/v DMSO) of each compound or control was added per well. After addition of compounds and controls, plates were allowed to incubate for an additional 120 minutes at room temperature. All assays were performed in triplicate. Polarization was monitored using an EnVision Multilabel reader (Perkin-Elmer, Waltham, Mass.) by exciting the FP probe at 530±25 nm, and monitoring fluorescence intensity of both parallel and perpendicular polarized light at 579±25 nm. Readout was in millipolarization units (mP).
Signal gain and G factors were determined in wells containing 20 μM ADEP 2378, which had been previously verified (data not shown) as containing completely unbound ADEP 2591. Data collected was normalized to values obtained from positive (20 μM ADEP 2378) or negative (DMSO) controls. Curves were fit with non-linear regression using the equation “log [inhibitor]vs. Response-variable slope (four parameters)-symmetrical” in the program Prism 6 (GraphPad Software, La Jolla, Calif. USA, www.graphpad.com). The structures for ADEP 2378 and ADEP 2591 are shown above. ADEP 2378 is (E)-N-((S)-1-(((2R,6S,8aS,14aS,20S,23aS)-2,6-dimethyl-5,8,14,19,23-pentaoxooctadecahydro-1H,5H,14H,19H-pyrido[2,1-i]dipyrrolo[2,1-c:2′,1′-1][1]oxa[4,7,10,13]tetraazacyclohexadecin-20-yl)amino)-1-oxo-3-phenylpropan-2-yl)pent-2-enamide. ADEP 2591 is 5-(3-(3-((6S,9S,11aS,17S,20aS)-6,10-dimethyl-5,8,11,16,20-pentaoxo-17-((S)-2-((E)-pent-2-enamido)-3-phenylpropanamido)hexadecahydro-1H,5H,16H-dipyrrolo[2,1-c:2′,1′-1][1]oxa[4,7,10,13]tetraazacyclohexadecin-9-yl)propyl)thioureido)-2-(6-(dimethylamino)-3-(dimethyliminio)-3H-xanthen-9-yl)benzoate.

[4] = Streptococcus pneumoniae, R6; read-out: Minimal Inhibitory Concentration S. pneumoniae R6

T1 sequence (Q2G036 whole entry): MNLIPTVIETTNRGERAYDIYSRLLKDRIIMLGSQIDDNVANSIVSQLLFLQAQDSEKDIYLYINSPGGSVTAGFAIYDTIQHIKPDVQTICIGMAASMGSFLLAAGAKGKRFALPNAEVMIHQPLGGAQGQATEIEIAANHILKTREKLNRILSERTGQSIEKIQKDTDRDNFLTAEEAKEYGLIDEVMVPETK

SMILES	EC50 (Sa-ClpP [1]) [µM]	IC50 at 72 h [2] [µM]	MIC (S. pneumoniae R6; [4]) [µM]	Minimal Inhibitory Concentration S. aureus USA 300 ΔClpP (S. aureus USA 300 ΔClpP) [µM]	IC50 (Sa-ClpP [3]) [µM]	MIC (S. pneumoniae R6; Streptococcus pneumoniae, R6, read-out: Minimal Inhibitory Concentration S. pneumoniae R6) [µM]
CCc1ccc(NC(=O)N[C@@H](Cc2cc(F)cc(F)c2)C(=O)N[C@@H]2C(=O)N3CCCC3C(=O)N(C)[C@@H](C)C(=O)N[C@@H](C)C(=O)N3C[C@@H](C)CC3C(=O)O[C@H]2C)cc1 (stereo partly drawn) [Compound 30, (S)-3-(3,5-Difluorophenyl)-2-(3-(4-Ethylphenyl)Ureido)-N-((2S,6S,9S,11aS,17S,18S,20aS)-2,6,9,10,18-Pentamethyl-5,8,11,16,20-Pentaoxohexadecahydro-1H,5H,16H-Dipyrrolo[2,1-C:2′,1′-L][1]Oxa[4,7,10,13]Tetraazacyclohexadecin-17-Yl)Propanamide]	0.43 ± 0.02	28.8 ± 3.7	0.008 (≈ 0.00637 µg/mL)	50	4 ± 0.1	
C[C@H]1CC2C(=O)O[C@@H](C)[C@H](NC(=O)[C@H](Cc3cc(F)cc(F)c3)NC(=O)Nc3ccc(OC(F)(F)F)cc3)C(=O)N3CCCC3C(=O)N(C)[C@@H](C)C(=O)N[C@@H](C)C(=O)N2C1 (stereo partly drawn) [Compound 28, (2S)-3-(3,5-Difluorophenyl)-N-((2S,6S,9S,11aS,17S,18S)-2,6,9,10,18-Pentamethyl-5,8,11,16,20-Pentaoxohexadecahydro-1H,5H,16H-Dipyrrolo[2,1-C:2′,1′-L][1]Oxa 1[4,7,10,13]Tetraazacyclohexadecin-17-Yl)-2-(3-(4-(Trifluoromethoxy)Phenyl)Ureido)Propanamide]	0.19 ± 0.01	16.1 ± 2.4	0.029 (≈ 0.0247 µg/mL)		5.6 ± 0.2	
C[C@H]1CC2C(=O)O[C@@H](C)[C@H](NC(=O)[C@H](Cc3cc(F)cc(F)c3)NC(=O)Nc3ccc(OC(F)(F)F)cc3)C(=O)N3C[C@H](O)CC3C(=O)N(C)[C@@H](C)C(=O)N[C@@H](C)C(=O)N2C1 (stereo partly drawn) [Compound 32, (S)-3-(3,5-Difluorophenyl)-N-((2S,6S,9S,11aS,13R,17S,18S,20aS)-13-Hydroxy-2,6,9,10,18-Pentamethyl-5,8,11,16,20-Pentaoxohexadecahydro-1H,5H,16H-Dipyrrolo[2,1-C:2′,1′-L][1]Oxa[4,7,10,13]Tetraazacyclohexadecin-17-Yl)-2-(3-(4-(Trifluoromethoxy)Phenyl)Ureido)Propanamide]	0.4 ± 0.01	28.3 ± 0.6	0.049 (≈ 0.0425 µg/mL)	100	7 ± 0.4	
C[C@H]1CC2C(=O)O[C@@H](C)[C@H](NC(=O)[C@H](Cc3cc(F)cc(F)c3)NC(=O)Nc3ccc(OC(F)(F)F)cc3)C(=O)N3CCCC3C(=O)N3CCOCC3C(=O)N[C@@H](C)C(=O)N2C1 (stereo partly drawn) [Compound 34, (S)-3-(3,5-Difluorophenyl)-2-(3-(4-(Trifluoromethoxy)Phenyl)Ureido)-N-((6aS,12S,13S,15aS,17S,21S,23aS)-13,17,21-Trimethyl-6,11,15,20,23-Pentaoxooctadecahydro-6H,11H,15H-[1,4]Oxazino[3,4-I]Dipyrrolo[2,1-C:2′,1′-L][1]Oxa[4,7,10,13]Tetraazacyclohexadecin-12-Yl)Propanamide] ({NH(4-OCF3-phenyl)-CO}-[Phe(3,5-F2)][aThr][ξP][X1]A[ξPro(4S-Me)]; ester 2-C)	0.33 ± 0.01	26 ± 2.6	0.049 (≈ 0.0431 µg/mL)	50	6.1 ± 0.4	
CCc1ccc(NC(=O)N[C@@H](Cc2cc(F)cc(F)c2)C(=O)N[C@@H]2C(=O)N3CCCC3C(=O)N(C)[C@@H](C)C(=O)N[C@@H](C)C(=O)N3CCCC3C(=O)O[C@H]2C)cc1 (stereo partly drawn) [Compound 29, (2S)-3-(3,5-Difluorophenyl)-2-(3-(4-Ethylphenyl)Ureido)-N-((6S,9S,11aS,17S,18S)-6,9,10,18-Tetramethyl-5,8,11,16,20-Pentaoxohexadecahydro-1H,5H,16H-Dipyrrolo[2,1-C:2′,1′-L][1]Oxa[4,7,10,13]Tetraazacyclohexadecin-17-Yl)Propanamide]	0.25 ± 0.02	26.8 ± 1.3	0.031 (≈ 0.0242 µg/mL)	100	5.9 ± 0.2	
C[C@@H]1CC2C(=O)O[C@@H](C)[C@H](NC(=O)[C@H](Cc3cc(F)cc(F)c3)NC(=O)Nc3ccc(OC(F)(F)F)cc3)C(=O)N3CCCC3C(=O)N3CCCCC3C(=O)N[C@@H](C)C(=O)N2C1 (stereo partly drawn) [Compound 40, (S)-3-(3,5-Difluorophenyl)-2-(3-(4-(Trifluoromethoxy)Phenyl)Ureido)-N-((2R,6S,8aS,14aS,20S,21S,23aS)-2,6,21-Trimethyl-5,8,14,19,23-Pentaoxooctadecahydro-1H,5H,14H,19H-Pyrido [2,1-I]Dipyrrolo[2,1-C:2′,1′-L][1]Oxa[4,7,10,13]Tetraazacyclohexadecin-20-Yl)Propanamide]	0.36 ± 0.03	43.8 ± 5.1	0.1 (≈ 0.0878 µg/mL)	25	12.7 ± 0.7	
CN[C@@H]1[C@H](O)[C@H](NC)[C@H]2O[C@@]3(O)C(=O)C[C@@H](C)O[C@H]3O[C@@H]2[C@H]1O [Spectinomycin, spectinomycin, reference compound]				25		6.3 (≈ 2.09 µg/mL)
